# Experimental data from US12285428B2 (IMBRIA PHARMACEUTICALS, INC., priority 2021, dated 2025).
# Assays:
# healthy subjects = experiment: FIH study, multiple-dose MR part: safety and tolerability; assay type: in vivo, human
# Experimental: AEs were recorded from (first) admission until completion of the follow-up visit. Any clinically significant observations in results of clinical laboratory, 12-lead ECGs, vital signs, or physical examinations were recorded as AEs.
# A treatment-emergent AE (TEAE) was defined as any event not present prior to (the first) administration of the study drug or any event already present that worsened in either severity or frequency following exposure to the study drug.
# At several time points before and after drug administration, subjects were asked nonleading questions to determine the occurrence of AEs. Subjects were asked in general terms about any AEs at regular intervals during the study. In addition, all AEs reported spontaneously during the course of the study were recorded. Details included description of the event, date and time of onset, date and time of end, total duration, severity, relationship to study drug, intervention, seriousness, and outcome. All answers were interpreted by the Investigator and were recorded in the eCRF. All AEs were classified according to the Medical Dictionary for Regulatory Activities (MedDRA; Version 22.0) for AEs.
# The severity of the AEs was rated as mild, moderate, or severe; the relationship between the AEs and the study drug was indicated as none, unlikely, possibly, likely, or definitely. Adverse events assessed as possibly, likely, or definitely were considered related to the study drug; AEs assessed as none or unlikely were considered not related to the study drug.
# dog = experiment: 28-day dog study (nonclinical toxicology: NOAEL and exposure); details: in vivo
# Experimental: Based on the nonclinical toxicology data, it was considered that subjects in this clinical study were not at unreasonable risk of adverse effects. […] For a 60-kg individual, the NOAEL dose would be 6480 mg. With a 10-fold safety factor applied, this would allow for a maximum recommended starting dose (MRSD) of 648 mg/day.7,8 The planned starting dose in the current Phase 1 study was 50 mg, equivalent to 0.83 mg/kg/day for a 60-kg subject. This starting dose is less than 10% of the MRSD determined from the dog NOAEL and less than 1% of the dog NOAEL
# The relevant animal study was the 28-day dog study where the NOAEL for IMB-1018972 was 200 mg/kg/day.
smiles,measurement,setting,value
"COc1ccc(CN2CCN(CCOC(=O)c3cccnc3)CC2)c(OC)c1OC [IMB-1018972, 2-[4-[(2,3,4-trimethoxyphenyl)methyl]piperazin-1-yl]ethyl pyridine-3-carboxylate]",Severity of flushing (2 subjects),"healthy subjects; 200 mg 8-hour MR q12h, fed",mild
same,Severity of all TEAEs,healthy subjects; multiple-dose MR part,mild
same,Number of TEAEs,healthy subjects; multiple-dose MR part (N=12),40
same,Number of TEAEs considered not related to the study drug,healthy subjects; multiple-dose MR part (N=12),30
same,Number of TEAEs considered related to the study drug,healthy subjects; multiple-dose MR part (N=12),10
same,"Number of TEAEs, SOC gastrointestinal disorders",healthy subjects; multiple-dose MR part (N=12),9
same,"Number of TEAEs, SOC general disorders and administration site conditions",healthy subjects; multiple-dose MR part (N=12),4
same,"Number of TEAEs, SOC musculoskeletal and connective tissue disorders",healthy subjects; multiple-dose MR part (N=12),4
same,"Number of TEAEs, SOC nervous system disorders",healthy subjects; multiple-dose MR part (N=12),9
same,"Number of TEAEs, SOC renal and urinary disorders (pollakiuria)",healthy subjects; multiple-dose MR part (N=12),4
same,Number of drug-related TEAEs of flushing,healthy subjects; multiple-dose MR part (N=12),2
same,Number of drug-related TEAEs of pollakiuria,healthy subjects; multiple-dose MR part (N=12),4
same,"Number of drug-related TEAEs, nervous system disorders",healthy subjects; multiple-dose MR part (N=12),2
same,Subjects reporting TEAEs,healthy subjects; multiple-dose MR part (N=12),100%
same,Subjects reporting TEAEs considered not related to the study drug,healthy subjects; multiple-dose MR part (N=12),75%
same,Subjects reporting TEAEs considered related to the study drug,healthy subjects; multiple-dose MR part (N=12),58.3%
same,"Subjects reporting TEAEs, SOC gastrointestinal disorders",healthy subjects; multiple-dose MR part (N=12),41.7%
same,"Subjects reporting TEAEs, SOC general disorders and administration site conditions",healthy subjects; multiple-dose MR part (N=12),33.3%
same,"Subjects reporting TEAEs, SOC musculoskeletal and connective tissue disorders",healthy subjects; multiple-dose MR part (N=12),33.3%
same,"Subjects reporting TEAEs, SOC nervous system disorders",healthy subjects; multiple-dose MR part (N=12),58.3%
same,"Subjects reporting TEAEs, SOC renal and urinary disorders (pollakiuria)",healthy subjects; multiple-dose MR part (N=12),33.3%
same,Subjects reporting drug-related TEAEs of flushing,healthy subjects; multiple-dose MR part (N=12),16.7%
same,Subjects reporting drug-related TEAEs of pollakiuria,healthy subjects; multiple-dose MR part (N=12),33.3%
same,"Subjects reporting drug-related TEAEs, nervous system disorders",healthy subjects; multiple-dose MR part (N=12),16.7%
same,NOAEL dose for a 60-kg individual (HED),dog,6480 mg
same,"Maximum recommended starting dose (MRSD), 10-fold safety factor",dog; 28 days,648 mg/day
